Assay results from patent US8314088B2, “Pyrazinooxazepine derivatives” (Takeda Pharmaceutical Company Limited, priority 2009, dated 2012).

What was measured:
[1] = molecular target: serotonin 5-HT2C receptor (Homo sapiens, UniProt P28335, I156V/I160V/N158S); type: cell-based
[2] = system: Male F344 rats; test: obesity: food consumption after single gavage dose (Experimental Example 6a); type: in vivo, rat; conditions: 0.5 mg/mL in 0.5% methylcellulose, 2 mL/kg by gavage; 24 hr after administration; obese F344 rats on high-fat diet
Method: Experimental Example 6a The effect of the compound of the present invention for obesity was measured using the food consumption calculated as follows as an index. Male F344 rats (CLEA Japan, Inc.) were purchased at 5 weeks of age, and raised by groups on a solid high-fat diet with fat content 45 kcal % (D12451, Research Diets). When sufficient obesity was observed (40 to 60-week-old), they were raised singly, and given a powder high-fat diet with lipid content 45 kcal % […], Research Diets) in a feeder. The rats were grouped using body weight and food consumption (18:00-8:00) one day before administration as indices. […] A 0.5% methylcellulose solution was administered to the control group. After administration, a previously-weighed feeder was placed in the breeding cage. The feeder was weighed 24 hr after the administration and the food consumption was calculated.

[3] = system: SD female rats; test: stress urinary incontinence: leak point pressure before and after administration (Experimental Example 5a); type: in vivo, rat; conditions: i.v., spinal cord-transected SD female rats
Method: The effect of the compound of the present invention for stress urinary incontinence was measured by comparing the leak point pressure before and after the administration of the compound as shown below. SD female rats (body weight 200-270 g) were anesthetized with urethane (Wako Pure Chemical Industries, Ltd.), and the spinal cord was cut at T8-9 level to eliminate the micturition reflex. During the operation, isoflurane anesthesia was added as necessary. The rats were fixed at a dorsal position, and two catheters (PE-100; Clay Adams) were indwelled in the bladder. One of the catheters was filled with saline stained with Evans Blue dye (Merck), and connected to a 50 ml syringe (TERUMO CORPORATION) fixed on an infusion pump (KD Scientific) via a three-way cock. The other catheter was connected to a pressure transducer (DX-100; NIHON KOHDEN CORPORATION), and signals of the transducer were transmitted to computer via an amplifier (blood pressure amplification unit AP-641G; NIHON KOHDEN CORPORATION) and a data analyzer (BIOPAC; MP100), and recorded on a hard disk. The data was analyzed on the computer using a software (BIOPAC; AcqKnowledge). A DMA/PEG400 (1:1) solution was intravenously administered to the rats at 0.5 mL/kg. From 10 min later, saline was injected into the bladder using the infusion pump at a rate of 360 ml/hr, infusion was stopped on the moment fluid leakage from the urethral meatus was observed, and the solution in the bladder was discharged by opening the three-way cock. The maximum intravesical pressure during infusion was taken as a leak point pressure, which was measured repeatedly until the value was stabilized, and the average value of the last three measures was taken as the data. […] Williams test was used for statistical calculation.

[4] = system: female spinal cord-transected rats with bilaterally transected hypogastric nerve and pudendal nerve; test: organ prolapse: urethral closure response induced by increased intravesical pressure (Experimental Example 7a); type: in vivo, rat; design: unit not given here; conditions: 1 mg/kg, i.v.; evaluated 10 min after administration
Method: The effect of the compound of the present invention for organ prolapse was measured by examining the enhancement of urethral closure response by pelvic floor muscles (iliococcygeal muscle, pubococcygeal muscle etc.) induced by an increased intravesical pressure, by compound administration. The enhancing action of the compound on urethral closure response induced by an increased intravesical pressure was measured using female spinal cord-transected rats with bilaterally transected hypogastric nerve and pudendal nerve. SD female rats (body weight 246-298 g) were anesthetized with urethane, and the spinal cord was cut at T8-9 level to eliminate the micturition reflex. During the operation, isoflurane anesthesia was added as necessary. After abdominal section, bladder neck was ligated with a suture thread, and then the hypogastric nerve and pudendal nerve were bilaterally transected. […] The changes in the topical pressure within the urethra (hereinafter conveniently indicated as urethral pressure) as measured by the microtip transducer was transmitted to a computer via an amplifier and a data intake device, and recorded on a hard disc. […] The reaction of the urethra induced by an increased intravesical pressure was measured repeatedly until the value is stabilized, and the average of the last 2 measures was taken as the value before drug administration. […]

[5] = system: male F344 rats (DIO-F344 rat); test: obesity: body weight and food consumption in high-fat diet-loaded rats, osmotic pump (Experimental Example 6b); type: in vivo; conditions: subcutaneous osmotic pump; for body weight loss (%): 14 days
Method: The effect of the compound of the present invention for obesity was measured using high-fat diet-loaded rats based on the effects on body weight and food consumption. 38 to 60-week-old male F344 rats (DIO-F344 rat) raised on a […] fat high-fat diet (D12451, Research Diets) from 7 weeks of age were used. They were grouped based on the body weight one day before operation. The compound of Example 8 was dissolved in saline, filled in an osmotic pump (Alzet osmotic pump 2mL2 type), and subcutaneously implanted under isoflurane anesthesia. The body weight was measured on completion of the operation, and measured again at 14 days postoperation. In addition, the amount of remaining food was measured, and food consumption for 14 days was measured. For statistical calculation, Williams test was used.

serotonin 5-HT2C receptor, sequence (P28335 33-458 I156V/N158S/I160V limits assumed): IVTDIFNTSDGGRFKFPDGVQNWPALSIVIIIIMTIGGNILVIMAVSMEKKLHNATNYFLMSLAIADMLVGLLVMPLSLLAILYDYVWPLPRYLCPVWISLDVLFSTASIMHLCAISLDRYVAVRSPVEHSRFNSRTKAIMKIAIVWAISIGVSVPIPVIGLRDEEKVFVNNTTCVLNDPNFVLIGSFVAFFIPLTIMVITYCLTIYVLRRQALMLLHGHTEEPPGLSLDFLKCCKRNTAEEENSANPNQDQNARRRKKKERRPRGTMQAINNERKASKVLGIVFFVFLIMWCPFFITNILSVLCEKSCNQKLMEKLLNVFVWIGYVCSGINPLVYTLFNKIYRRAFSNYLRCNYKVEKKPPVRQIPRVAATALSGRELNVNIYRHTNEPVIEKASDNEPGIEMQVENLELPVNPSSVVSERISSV

CC(C)Oc1cnc2c(n1)OCCNC2.Cl [Example 2, 3-(1-methylethoxy)-6,7,8,9-tetrahydropyrazino[2,3-f][1,4]oxazepine hydrochloride]
ratio (%) relative to maximum response by 5-HT (1 μM) [1]: 93%

Cl.c1nc2c(nc1C1CC1)OCCNC2 [Example 10, 3-cyclopropyl-6,7,8,9-tetrahydropyrazino[2,3-f][1,4]oxazepine hydrochloride]
ratio (%) relative to maximum response by 5-HT (1 μM) [1]: 89%

C[C@@H]1COCCN1c1cnc2c(n1)O[C@@H](C)CNC2.Cl [Example 7, (6S)-6-methyl-3-[(3R)-3-methylmorpholin-4-yl]-6,7,8,9-tetrahydropyrazino[2,3-f][1,4]oxazepine hydrochloride]
ratio (%) relative to maximum response by 5-HT (1 μM) [1]: 108%

C[C@@H]1COCCN1c1cnc2c(n1)OCCNC2.Cl [Example 5, 3-[(3R)-3-methylmorpholin-4-yl]-6,7,8,9-tetrahydropyrazino[2,3-f][1,4]oxazepine hydrochloride]
suppression of food consumption as compared to the control group [2]: 21.8% | Change in leak point pressure (cmH2O) ([3]; 0.03 mg/kg): 5.2 ± 1.7 cmH2O | Change in leak point pressure (cmH2O) ([3]; 0.1 mg/kg): 9.1 ± 1.3 cmH2O | Change in leak point pressure (cmH2O) ([3]; 0.3 mg/kg): 13.6 ± 2.4 cmH2O | Change in leak point pressure (cmH2O) ([3]; 1 mg/kg): 19.6 ± 1.9 cmH2O | urethral closure respons (ratio relative to value before administration) [4]: 227 ± 32 | ratio (%) relative to maximum response by 5-HT (1 μM) [1]: 95%

CC[C@@H]1COCCN1c1cnc2c(n1)OCCNC2.Cl [Example 9, 3-[(3R)-3-ethylmorpholin-4-yl]-6,7,8,9-tetrahydropyrazino[2,3-f][1,4]oxazepine hydrochloride]
ratio (%) relative to maximum response by 5-HT (1 μM) [1]: 103%

C[C@H]1CNCc2ncc(N3CCOCC3)nc2O1 [Example 6, (6S)-6-methyl-3-(morpholin-4-yl)-6,7,8,9-tetrahydropyrazino[2,3-f][1,4]oxazepine]
ratio (%) relative to maximum response by 5-HT (1 μM) [1]: 102%

CC(C)N(C)c1cnc2c(n1)OCCNC2.Cl [Example 8, N-methyl-N-(1-methylethyl)-6,7,8,9-tetrahydropyrazino[2,3-f][1,4]oxazepin-3-amine hydrochloride]
Change in leak point pressure (cmH2O) ([3]; 0.1 mg/kg): 5.4 ± 1.6 cmH2O | Change in leak point pressure (cmH2O) ([3]; 0.3 mg/kg): 10.8 ± 3.3 cmH2O | Change in leak point pressure (cmH2O) ([3]; 1 mg/kg): 17.3 ± 3.4 cmH2O | Change in leak point pressure (cmH2O) ([3]; 3 mg/kg): 23.6 ± 3.3 cmH2O | urethral closure respons (ratio relative to value before administration) [4]: 192 ± 13 | food consumption/14 days ([5]; 3 mg/kg/day): 150 ± 7 g | body weight loss (%) ([5]; 3 mg/kg/day): 4.8 ± 0.5% | food consumption/14 days ([5]; 10 mg/kg/day): 140 ± 6 g | body weight loss (%) ([5]; 10 mg/kg/day): 4.9 ± 0.3% | food consumption/14 days ([5]; 30 mg/kg/day): 110 ± 2 g | body weight loss (%) ([5]; 30 mg/kg/day): 7.5 ± 0.3 % | ratio (%) relative to maximum response by 5-HT (1 μM) [1]: 95%
